Results from patent publication US8198280B2, “N-hydroxyamide derivatives and use thereof” (Merck Serono SA, priority 2005, dated 2012).

Columns and labels:
collagenase (MMP-1) = molecular target: T1, collagenase (MMP-1) (Homo sapiens, UniProt P03956); experiment: MMP-1 enzyme inhibition assay (coumarin-labelled peptide substrate); format: biochemical; conditions: fluorogenic substrate McaPLGLDpaAR, 37° C., 2 hours
T1 sequence (P03956 100-469): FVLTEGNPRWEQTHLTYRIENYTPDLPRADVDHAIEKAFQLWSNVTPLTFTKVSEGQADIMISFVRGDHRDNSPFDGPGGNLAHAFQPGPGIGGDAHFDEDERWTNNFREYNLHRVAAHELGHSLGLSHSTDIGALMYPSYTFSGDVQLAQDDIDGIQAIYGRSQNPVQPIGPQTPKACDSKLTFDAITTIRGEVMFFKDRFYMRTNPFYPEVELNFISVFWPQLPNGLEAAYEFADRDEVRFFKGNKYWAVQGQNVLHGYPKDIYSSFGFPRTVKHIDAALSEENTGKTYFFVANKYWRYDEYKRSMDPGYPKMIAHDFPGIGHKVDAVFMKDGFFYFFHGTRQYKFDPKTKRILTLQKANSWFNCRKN
Method: (§1) Compounds of the invention were tested for inhibitory activity against 92 kDa gelatinase (MMP-9) in an assay using a coumarin-labeled peptide substrate, (7-methoxycoumarin-4-yl)acetyl-Pro-Leu-Gly-Leu-(3-[2,4-dinitrophenyl]-L-2,3-diaminopropionyl)-Ala-Arg-NH2 (McaPLGLDpaAR) (Knight et al, 1992, FEBS Lett., 263-266).
(§2) Stock solutions were made up as follows: Assay Butter: 100 mM Tris-HCl pH 7.6 containing 100 mM NaCl, 10 mM CaCl2, and 0.05% Brij 35.
(§3) Substrate: 0.4 mM McaPLGLDpaAR (from Bachem) (0.437 mg/ml) stock solution in 100% DMSO (stored at −20° C.). Dilute to 8 μM in assay butter.
(§4) Enzyme: Recombinant human 92 kDa gelatinase (MMP-9; APMA (4-aminophenyl mercuric acetate)-activated if necessary) appropriately diluted in assay butter.
(§5) Test Compounds were prepared initially as 10 mM compound solution in 100% DMSO, diluted to 1 mM in 100% DMSO, then serially diluted 3-fold in 100% DMSO across columns 1-10 of a 96-well microtitre plate Assay concentration range, 100 μM (column 1) to 5.1 nM (column 10).
(§6) The assay was performed in a total volume of 100 μL per well in 96-well microtitre plates. Activated enzyme (20 μL) was added to the wells followed by 20 μL of assay butter. Appropriate concentrations of test compounds dissolved in 10 μL of DMSO were then added followed by 50 μL of McaPLGLDpaAR ([…], prepared by dilution of DMSO stock in assay butter). For each as say ten concentrations of test compound were examined in duplicate. Control wells lack either enzyme or test compound. The reactions were incubated at 37° C. for 2 hours. The fluorescence at 405 nm was measured immediately with an SLT Fluostar fluorometer (SLT Labinstruments GmbH, Grodig, Austria) using 320 nm excitation, without stopping the reaction.
(§7) The effect of the test compound was determined from the dose response curve generated by the 10 duplicate concentrations of inhibitor. The IC50 (the concentration of compound required to give a 50% decrease in enzyme activity) was obtained by fitting data to the equation, Y=a+((b−a)/(1+(c/X)^d)). (Y=inhibition achieved for a particular dose; X=the dose in nM; a=minimum y or zero % inhibition; b=maximum y or 100% inhibition; c=is the IC50; d=is the slope). The result was rounded to one significant figure.
Compounds of the invention were tested for inhibitory activity against collagenase (MMP-1) in an assay using a coumarin-labelled peptide substrate, (7-methoxycoumarin-4-yl)acetyl-Pro-Leu-Gly-Leu-(3-[2,4-dinitrophenyl]-L-2,3diaminopropionyl)-Ala-Arg-NH2 (Mca PLGLDpaAR) (Knight et al, 1992, above). The protocol for this assay was as described for the MMP-9 assay above.

metalloelastase (MMP-12) = metalloelastase (MMP-12) (Homo sapiens, UniProt P39900); experiment: MMP-12 enzyme inhibition assay (coumarin-labelled peptide substrate); format: biochemical; conditions: fluorogenic substrate McaPLGLDpaAR, 37° C., 2 hours
Method: as §1, §2, §3, §4, §5, §6, §7
Compounds of the invention were tested for inhibitory activity against metalloelastase (MMP-12) in an assay using a coumarin-labelled peptide substrate, (7-methoxycoumarin-4-yl)acetyl-Pro-Leu-Gly-Leu-(3-[2,4dinitrophenyl]-L-2,3-diaminopropionyl)-Ala-Arg-NH2 (McaPLGLDpaAR) (Knight et al, 1992, above). The protocol for this assay was as described for the MMP-9 assay above.

[1] = test system: IL-2-induced peritoneal recruitment of lymphocytes; experiment: IL-2-induced peritoneal recruitment of lymphocytes; format: in vivo, C3H/HEN mice; conditions: mice, 1 mg/kg po, 15 min prior to IL-2; cells collected 24 h after IL-2
Method: Administration of IL-2 intraperitoneally causes migration of lymphocytes into the intraperitoneal cavity. This is a model for the cellular migration that occurs during inflammation.
C3H/HEN mice (Elevage Janvier, France) are intraperitoneally injected with IL-2 (Serono Pharmaceutical Research Institute, 20 μg/kg, in saline).
Compounds of the invention are suspended in 0.5% carboxymethylcellulose (CMC)/0.25% tween-20 and are administered by s.c. or p.o. route (10 ml/kg) 15 min prior to administration of IL-2.
Twenty-four hours after administration of IL-2, peritoneal white blood cells are collected by 3 successive lavages of the peritoneal cavity with 5 ml phosphate buffered saline (PBS)-1 mM EDTA (+4° C.). The suspension is centrifuged (1700 g×10 min at +4° C.). The resulting pellet is suspended in 1 ml PBS-1 mM EDTA.
Lymphocytes are identified and counted using a Beckman/Coulter counter.
The animals are divided into 6 groups (6 mice each group):
Group 1: (baseline) receives 0.5% CMC/0.25% tween-20 (vehicle of compound of the invention) and saline (vehicle of IL-2);
Group 2: (control IL-2) receives 0.5% CMC/0.25% tween-20 and injection of IL-2;
Group 3: Experimental group (Compound of the invention Dose 1) receives a compound of the invention and injection of IL-2; […]
Inhibition of lymphocyte recruitment is calculated as follows: […]

Chain of metalloelastase (MMP-12) (P39900 106-470): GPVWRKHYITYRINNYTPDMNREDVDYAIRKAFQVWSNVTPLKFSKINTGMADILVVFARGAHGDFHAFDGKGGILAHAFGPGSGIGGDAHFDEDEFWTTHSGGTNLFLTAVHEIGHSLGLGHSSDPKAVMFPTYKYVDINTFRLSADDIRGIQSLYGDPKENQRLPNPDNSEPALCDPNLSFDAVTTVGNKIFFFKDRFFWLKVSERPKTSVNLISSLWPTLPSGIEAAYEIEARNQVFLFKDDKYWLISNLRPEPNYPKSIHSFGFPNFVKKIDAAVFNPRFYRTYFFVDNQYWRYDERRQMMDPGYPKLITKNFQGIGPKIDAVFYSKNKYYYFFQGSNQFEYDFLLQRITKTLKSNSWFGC

Row | IC50 (collagenase (MMP-1)) [µM] | IC50 (metalloelastase (MMP-12)) [nM] | Compound | % inhibition of IL-2-induced peritoneal recruitment of lymphocytes [1] [%]
1 | > 5 | 264 | O=C(NO)[C@H](O)CC(=O)N1CCN(c2ccc(F)cc2)CC1 [Example 1, (2R)-4-[4-(4-fluorophenyl)piperazin-1-yl]-N,2-dihydroxy-4-oxo butanamide] | 
2 | > 5 | 58 | O=C(NO)[C@@H](O)CC(=O)N1CCN(c2ccc(F)cc2)CC1 [Example 2, (2S)-4-[4-(4-fluorophenyl)piperazin-1-yl]-N,2-dihydroxy-4-oxobutanamide] | 51
3 | > 5 | 5 | C[C@@H]1CN(c2ccc(OC(F)(F)F)cc2)CCN1C(=O)C[C@H](O)C(=O)NO [Example 3, (2S)—N,2-dihydroxy-4-{(2R)-2-methyl-4-[4-(trifluoromethoxy)phenyl]piperazin-1-yl}-4-oxobutanamide] | 
4 | > 5 | 5 | C[C@@H]1CN(c2ccc(-c3ccccc3)cc2)CCN1C(=O)C[C@H](O)C(=O)NO [Example 4, (2S)-4-[(2R)-4-biphenyl-4-yl-2-methylpiperazin-1-yl]-N,2-dihydroxy-4-oxobutanamide] | 
